According to ChEMBL document CHEMBL6182843, “Actinomycetes: Treasure trove for discovering novel antibiotic candidates” (2025):
In brackets after ≈: the same amount, converted by molar mass.

Assays:
Format in all cases: functional
Escherichia coli [1] = assay: Antibacterial activity against Escherichia coli
Staphylococcus aureus [2] = assay: Antibacterial activity against methicillin-resistant Staphylococcus aureus
Xanthomonas oryzae = assay: Antibacterial activity against Xanthomonas oryzae
Xanthomonas campestris = assay: Antibacterial activity against Xanthomonas campestris
Staphylococcus aureus [3] = assay: Antibacterial activity against Staphylococcus aureus ATCC 33592 assessed as reduction in microbial growth
Staphylococcus aureus [4] = assay: Antibacterial activity against Staphylococcus aureus ATCC 25923 assessed as reduction in microbial growth
Bacillus subtilis = assay: Antibacterial activity against Bacillus subtilis ATCC 6633 assessed as reduction in microbial growth
Staphylococcus aureus [5] = assay: Antimicrobial activity against Staphylococcus aureus ATCC 29213 assessed as reduction in microbial growth incubated for 16 hrs by CLSI protocol based Mueller-Hinton broth micro-dilution method
[6] = system: Staphylococcus epidermidis; assay: Antimicrobial activity against Staphylococcus epidermidis ATCC 12228 assessed as reduction in microbial growth incubated for 16 hrs by CLSI protocol based Mueller-Hinton broth micro-dilution method
Staphylococcus aureus [7] = assay: Antibacterial activity against Staphylococcus aureus ATCC 33591
Enterococcus faecalis = assay: Antibacterial activity against Vancomycin-resistant Enterococcus faecalis ATCC 51299
Escherichia coli [8] = assay: Antibacterial activity against […] Escherichia coli ATCC 25922 assessed as reduction in bacterial growth measured for 12 hrs by CLSI protocol based broth microdilution method
Staphylococcus aureus [9] = assay: Antibacterial activity against methicillin-resistant Staphylococcus aureus ATCC 43300 assessed as reduction in bacterial growth measured for 12 hrs by CLSI protocol based broth microdilution method
Bacillus cereus = assay: Antibacterial activity against Bacillus cereus ATCC 11778 assessed as reduction in bacterial growth
Staphylococcus aureus [10] = assay: Antibacterial activity against Staphylococcus aureus ATCC 25923 assessed as reduction in bacterial growth by CLSI protocol based MHB micro-silution method
Streptococcus suis = assay: Antibacterial activity against Streptococcus suis SC19 assessed as reduction in bacterial growth by CLSI protocol based MHB micro-silution method
Staphylococcus aureus [11] = assay: Antibacterial activity against Staphylococcus aureus

With C=CC(C)(C)ON(CCCCCCC(O)CCCCC(O)c1nc(CCCNC(=N)NCC=C(C)C)c(OC)nc1C(O)CCNC(=N)NCC=C(C)C)C(=N)N (centres undefined) the MIC (Escherichia coli [1]) was 2 µg/mL (≈ 2.49 µM) and the MIC (Staphylococcus aureus [2]) was 2 µg/mL (≈ 2.49 µM).
CO[C@H]1/C=C\C=C(/C)C(=O)NC2=CC(=O)C(O)=C(C[C@@H](C)C[C@H](OC)[C@H](O)[C@@H](C)/C=C(\C)[C@@H]1OC(N)=O)C2=O gave an MIC (Xanthomonas oryzae) of 0.125 µg/mL (≈ 0.229 µM) and an MIC (Xanthomonas campestris) of 0.25 µg/mL (≈ 0.457 µM).
COC(=O)[C@@]1(O)C[C@@H](C)C[C@H](OC)[C@H](O)[C@@H](C)C/C=C(/C)[C@H](OC(N)=O)[C@@H](OC)/C=C\C=C(/C)C(=O)NC2=CC(=O)O[C@]21O gave an MIC (Xanthomonas oryzae) of 4.06 µg/mL (≈ 6.5 µM) and an MIC (Xanthomonas campestris) of 8.12 µg/mL (≈ 13 µM).
Work on CC[C@H](C)[C@@H]1NC(=O)[C@@H](Cc2c[nH]c3cc(Br)ccc23)NC(=O)[C@@H](Cc2c[nH]c3ccccc23)NC(=O)[C@@H](CO)NC(=O)[C@@H](CCC(=O)O)NC(=O)[C@@H](C(C)C)NC1=O yielded an MIC (Staphylococcus aureus [3]) of 6.3 µg/mL, an MIC (Staphylococcus aureus [4]) of 6.3 µg/mL and an MIC (Bacillus subtilis) of 1.6 µg/mL.
Work on C/C=C1\NC(=O)[C@@H](CC)NC(=O)CNC(=O)[C@@](C)(C(C)=O)NC(=O)[C@H](Cc2c[nH]c3cccc(OC)c23)NC(=O)c2csc(n2)[C@@H](C)NC(=O)CNC1=O yielded an MIC (Staphylococcus aureus [5]) of 3.1 µg/mL and an MIC [6] of 1.6 µM.
With COc1cc2oc3c(c(=O)c2cc1O)C(=O)C1=C(CCc2cc4cc(C)n(CCO)c(=O)c4c(O)c21)C3=O the MIC (Staphylococcus aureus [7]) was 0.12 µg/mL (≈ 0.233 µM) and the MIC (Enterococcus faecalis) was 0.25 µg/mL (≈ 0.485 µM).
COC(=O)[C@]1(O)C[C@@H](C)C[C@H](OC)[C@H](O)[C@@H](C)C/C=C(/C)[C@H](OC(N)=O)[C@@H](OC)/C=C\C=C(/C)C(=O)NC2=CC(=O)O[C@]21O showed an MIC (Xanthomonas oryzae) of 2.03 µg/mL (≈ 3.25 µM) and an MIC (Xanthomonas campestris) of 16.2 µg/mL (≈ 26 µM).
CC(=O)NCCc1c(CN2c3ccccc3[C@@]3(O)CCN(C(C)=O)[C@]23O)[nH]c2ccccc12 was tested, and the MIC (Escherichia coli [8]) was 25 µg/mL (≈ 55.7 µM) and the MIC (Staphylococcus aureus [9]) was 7 µg/mL (≈ 15.6 µM).
For CSc1c(C(C)C)c(=O)c2cc(O)c3c(=O)c4c(O)cccc4c(=O)c3c2c1=O, the MIC (Staphylococcus aureus [2]) was 3.12 µg/mL (≈ 7.65 µM).
CC(=O)NC(CSc1c(C(C)C)c(=O)c2cc(O)c3c(=O)c4c(O)cccc4c(=O)c3c2c1=O)C(=O)O (centres undefined) showed an MIC (Staphylococcus aureus [2]) of 0.195 µg/mL (≈ 0.372 µM).
C=CC(C)(C)ON(CCCCCCCCCCCCc1nc(CCCNC(=N)N)c(OC)nc1CCCNC(=N)N)C(=N)N showed an MIC (Escherichia coli [1]) of 1 µg/mL (≈ 1.62 µM) and an MIC (Staphylococcus aureus [2]) of 1 µg/mL (≈ 1.62 µM).
CC1C[C@@](C)(C(=O)[C@]23C=C[C@@]45C[C@H](C)[C@@](C)(O[C@]42CC(=O)O5)[C@H]3O)OC1=O (some centres undefined) was tested, and the MIC (Bacillus cereus) was 25 µg/mL (≈ 66.4 µM).
Compound C[C@@H]1C[C@@]2(C)O[C@]1(O)[C@@H]1C(=O)O[C@@]34C[C@@H](C)[C@@]5(C)O[C@@]13C(=C[C@@H]4C5O)C2=O (some centres undefined) has an MIC (Bacillus cereus) of 50 µg/mL (≈ 133 µM).
For O=C(N[C@H](CO)[C@H](O)c1ccc([N+](=O)[O-])cc1)C(Cl)Cl [CHLORAMPHENICOL], the MIC (Staphylococcus aureus [2]) was 3.12 µg/mL (≈ 9.66 µM).
With COc1cc2oc3c(O)c4c(c(O)c3c(=O)c2cc1O)-c1c(cc2cc(C)[nH]c(=O)c2c1O)CC4 the MIC (Staphylococcus aureus [7]) was 0.03 µg/mL (≈ 0.0634 µM) and the MIC (Enterococcus faecalis) was 0.03 µg/mL (≈ 0.0634 µM).
Compound C=CC(C)(C)ON(CCCCCCC(O)CCCCC(O)c1nc(CCCNC(=N)NCC=C(C)C)c(OC)nc1CCCNC(=N)NCC=C(C)C)C(=N)N (centres undefined) has an MIC (Escherichia coli [1]) of 4 µg/mL (≈ 5.09 µM) and an MIC (Staphylococcus aureus [2]) of 3 µg/mL (≈ 3.82 µM).
CCC[C@@H](O)Cc1cc(O)cc2c1C(=O)c1c(O)ccc(O)c1C2=O gave an MIC (Staphylococcus aureus [10]) of 1.56 µg/mL (≈ 4.56 µM) and an MIC (Streptococcus suis) of 1.56 µg/mL (≈ 4.56 µM).
CC(=O)[C@@H](C)N(CCc1c[nH]c2ccccc12)C(C)=O gave an MIC (Escherichia coli [8]) of 7 µg/mL (≈ 25.7 µM).
CC(=O)c1cc(C)c(C)n1CCc1c[nH]c2ccccc12 gave an MIC (Staphylococcus aureus [9]) of 25 µg/mL (≈ 89.2 µM).
CC[C@@H]1NC(=O)[C@@H](CC(C)C)NC(=O)C(NC(=O)[C@@H](CC(=O)C(CC(=O)C(CC(O)c2ccccc2)NC(=O)[C@@H](CCCNC(=O)CCN)NC(=O)CCNC(=O)/C=C\C=C\C(C)C)C(O)CC(=O)O)Cc2ccc(O[C@@H]3OC[C@H](O)[C@H](O)[C@H]3O)cc2)C(C)NC(=O)[C@@H]2CCCN2C(=O)[C@H](C)NC(=O)[C@H](CC(=O)c2ccc(Cl)cc2N)NC(=O)CNC(=O)[C@H](CO)NC(=O)CNC1=O (some centres undefined) was tested, and the MIC (Escherichia coli [1]) was over 64 µg/mL and the MIC (Staphylococcus aureus [11]) was 1 µg/mL (≈ 0.53 µM).
Compound CC[C@@H]1NC(=O)[C@@H](CC(C)C)NC(=O)C(NC(=O)[C@@H](CC(=O)C(CC(=O)C(CC(O)c2ccccc2)NC(=O)[C@@H](CCCN)NC(=O)CCNC(=O)/C=C\C=C\C(C)C)C(O)CC(=O)O)Cc2ccc(O[C@@H]3OC[C@H](O)[C@H](O)[C@H]3O)cc2)C(C)NC(=O)[C@@H]2CCCN2C(=O)[C@H](C)NC(=O)[C@H](CC(=O)c2ccc(Cl)cc2N)NC(=O)CNC(=O)[C@H](CO)NC(=O)CNC1=O (some centres undefined) has an MIC (Escherichia coli [1]) of over 64 µg/mL and an MIC (Staphylococcus aureus [11]) of 0.5 µg/mL (≈ 0.275 µM).
In the case of CC(=O)OC1[C@H]2C=C3C(=O)[C@@]4(C)C[C@@H](C)[C@](O)(O4)[C@@H]4C(=O)O[C@]25C[C@@H](C)[C@@]1(C)O[C@@]345 (some centres undefined), the MIC (Bacillus cereus) was over 50 µg/mL.
C[C@H]1[C@H](NC(=O)/C(=N\OC(C)(C)C(=O)O)c2csc(N)n2)C(=O)N1S(=O)(=O)O [AZTREONAM] showed an MIC (Escherichia coli [1]) of 0.25 µg/mL (≈ 0.574 µM) and an MIC (Staphylococcus aureus [2]) of 0.25 µg/mL (≈ 0.574 µM).
